Data reported in ChEMBL document CHEMBL1146702, “Synthesis and nicotinic receptor activity of a hydroxylated tropane” (Bioorg Med Chem Lett, 2004).

How the values were obtained:
[1] = target: Neuronal acetylcholine receptor; alpha2/beta4 (Homo sapiens, UniProt P30926+Q15822); test: Binding affinity against nicotinic acetylcholine receptor alpha2-beta4 using [3H]epibatidine as radioligand expressed in HEK293 cells or tsA cells; assay type: cell-based
[2] = target: T1, Neuronal acetylcholine receptor; alpha3/beta4 (Homo sapiens, UniProt P30926+P32297); test: Agonistic potency against nicotinic acetylcholine receptor alpha3-beta4; assay type: functional
[3] = target: Neuronal acetylcholine receptor; alpha4/beta4 (Homo sapiens, UniProt P30926+P43681); test: Binding affinity against nicotinic acetylcholine receptor alpha4-beta4 using [3H]epibatidine as radioligand expressed in HEK293 cells or tsA cells; assay type: cell-based
[4] = target: T1, Neuronal acetylcholine receptor; alpha3/beta4; test: Binding affinity against nicotinic acetylcholine receptor alpha3-beta4 using [3H]epibatidine as radioligand expressed in HEK293 cells or tsA cells; assay type: cell-based
[5] = target: Neuronal acetylcholine receptor; alpha4/beta2 (Homo sapiens, UniProt P17787+P43681); test: Binding affinity against nicotinic acetylcholine receptor alpha4-beta2 using [3H]epibatidine as radioligand expressed in HEK293 cells or tsA cells; assay type: cell-based
[6] = target: Neuronal acetylcholine receptor; test: Binding affinity against nicotinic acetylcholine receptor using [3H]epibatidine as radioligand in rat brain tissue; assay type: tissue-based

Chain of Neuronal acetylcholine receptor; alpha2/beta4 (P30926 whole entry): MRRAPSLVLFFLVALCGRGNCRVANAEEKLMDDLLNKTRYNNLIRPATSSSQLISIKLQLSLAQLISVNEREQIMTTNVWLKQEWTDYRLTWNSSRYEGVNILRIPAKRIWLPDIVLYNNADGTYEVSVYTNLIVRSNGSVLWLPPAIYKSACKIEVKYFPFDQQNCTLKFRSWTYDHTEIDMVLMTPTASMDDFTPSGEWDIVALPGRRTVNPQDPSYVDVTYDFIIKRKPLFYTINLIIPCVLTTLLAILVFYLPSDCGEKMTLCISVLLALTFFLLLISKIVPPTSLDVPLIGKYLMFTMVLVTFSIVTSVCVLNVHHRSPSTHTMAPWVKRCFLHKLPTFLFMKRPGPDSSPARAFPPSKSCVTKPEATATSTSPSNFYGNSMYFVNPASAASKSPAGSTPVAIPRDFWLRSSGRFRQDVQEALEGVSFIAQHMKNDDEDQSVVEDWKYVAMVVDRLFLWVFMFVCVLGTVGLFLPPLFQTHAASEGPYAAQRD
Chain of Neuronal acetylcholine receptor; alpha2/beta4 (Q15822 whole entry): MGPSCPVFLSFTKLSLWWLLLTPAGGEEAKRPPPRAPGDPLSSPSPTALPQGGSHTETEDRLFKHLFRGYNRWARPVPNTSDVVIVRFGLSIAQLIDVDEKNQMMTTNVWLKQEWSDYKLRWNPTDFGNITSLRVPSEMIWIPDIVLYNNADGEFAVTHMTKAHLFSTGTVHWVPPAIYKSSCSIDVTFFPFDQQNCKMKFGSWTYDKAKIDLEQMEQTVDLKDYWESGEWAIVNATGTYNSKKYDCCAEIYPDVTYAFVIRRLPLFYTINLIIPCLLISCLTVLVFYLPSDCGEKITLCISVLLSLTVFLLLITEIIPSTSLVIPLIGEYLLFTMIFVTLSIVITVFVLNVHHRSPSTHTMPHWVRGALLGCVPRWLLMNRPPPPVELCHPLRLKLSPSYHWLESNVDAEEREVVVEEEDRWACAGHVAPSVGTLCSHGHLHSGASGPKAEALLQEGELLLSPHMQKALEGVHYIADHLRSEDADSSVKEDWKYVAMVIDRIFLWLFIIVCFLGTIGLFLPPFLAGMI
T1 sequence (P30926 whole entry): as the sequence (P30926 whole entry) above
T1 sequence (P32297 whole entry): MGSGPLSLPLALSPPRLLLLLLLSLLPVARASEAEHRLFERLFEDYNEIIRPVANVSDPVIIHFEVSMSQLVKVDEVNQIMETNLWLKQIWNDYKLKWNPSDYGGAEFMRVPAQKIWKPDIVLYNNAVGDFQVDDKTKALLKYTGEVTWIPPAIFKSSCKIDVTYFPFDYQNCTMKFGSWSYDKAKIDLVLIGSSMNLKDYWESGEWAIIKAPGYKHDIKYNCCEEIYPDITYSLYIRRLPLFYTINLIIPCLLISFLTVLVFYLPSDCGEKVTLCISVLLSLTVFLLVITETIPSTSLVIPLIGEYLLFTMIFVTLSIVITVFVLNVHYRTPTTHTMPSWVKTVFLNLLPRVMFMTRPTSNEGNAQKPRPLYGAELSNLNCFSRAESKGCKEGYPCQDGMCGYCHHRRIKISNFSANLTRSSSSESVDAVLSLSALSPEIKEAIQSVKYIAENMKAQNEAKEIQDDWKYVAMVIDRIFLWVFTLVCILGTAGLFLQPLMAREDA
Chain of Neuronal acetylcholine receptor; alpha4/beta4 (P30926 whole entry): as the sequence (P30926 whole entry) above
Chain of Neuronal acetylcholine receptor; alpha4/beta4 (P43681 whole entry): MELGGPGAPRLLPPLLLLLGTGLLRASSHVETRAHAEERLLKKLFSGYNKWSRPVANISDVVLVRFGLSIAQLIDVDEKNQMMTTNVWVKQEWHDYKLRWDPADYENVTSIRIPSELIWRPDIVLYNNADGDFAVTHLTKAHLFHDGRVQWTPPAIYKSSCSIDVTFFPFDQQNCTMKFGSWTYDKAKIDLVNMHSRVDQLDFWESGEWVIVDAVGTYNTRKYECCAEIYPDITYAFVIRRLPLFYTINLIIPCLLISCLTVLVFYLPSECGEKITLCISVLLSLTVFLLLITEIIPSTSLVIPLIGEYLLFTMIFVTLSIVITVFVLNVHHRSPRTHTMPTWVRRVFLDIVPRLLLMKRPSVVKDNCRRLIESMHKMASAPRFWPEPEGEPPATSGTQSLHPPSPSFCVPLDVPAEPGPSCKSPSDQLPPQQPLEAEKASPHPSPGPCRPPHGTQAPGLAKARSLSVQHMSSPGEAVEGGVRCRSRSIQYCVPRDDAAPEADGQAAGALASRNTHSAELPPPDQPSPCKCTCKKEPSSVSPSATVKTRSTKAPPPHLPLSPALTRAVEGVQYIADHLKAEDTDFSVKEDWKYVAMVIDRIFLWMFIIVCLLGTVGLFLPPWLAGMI
Chain of Neuronal acetylcholine receptor; alpha4/beta2 (P17787 whole entry): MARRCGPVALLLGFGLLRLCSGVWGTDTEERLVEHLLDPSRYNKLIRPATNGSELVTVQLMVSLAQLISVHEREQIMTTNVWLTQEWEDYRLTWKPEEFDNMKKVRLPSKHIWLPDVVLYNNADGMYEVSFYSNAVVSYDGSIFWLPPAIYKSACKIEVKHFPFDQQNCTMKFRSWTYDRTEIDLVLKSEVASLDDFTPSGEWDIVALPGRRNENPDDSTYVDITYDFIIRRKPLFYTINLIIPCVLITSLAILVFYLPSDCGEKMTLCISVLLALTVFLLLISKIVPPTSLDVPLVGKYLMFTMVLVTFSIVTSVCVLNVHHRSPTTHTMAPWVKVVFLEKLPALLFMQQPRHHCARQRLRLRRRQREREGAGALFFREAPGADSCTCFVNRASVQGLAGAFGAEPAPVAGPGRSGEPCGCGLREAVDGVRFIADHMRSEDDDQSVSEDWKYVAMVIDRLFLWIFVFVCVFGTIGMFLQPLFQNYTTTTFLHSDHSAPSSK
Chain of Neuronal acetylcholine receptor; alpha4/beta2 (P43681 whole entry): as the sequence (P43681 whole entry) above

Compound | Ki [1] | EC50 [2] | Ki [3] | Ki [4] | Ki [5] | Ki [6]
OC1CC2CC(c3ccc(Cl)nc3)C(C1)N2 (stereo not drawn) | 31 nM | 2100 nM | 38 nM | 88 nM | 7.4 nM | 18 nM
Clc1ccc(C2CC3CCC2N3)cn1 (stereo not drawn) [EPIBATIDINE] | 0.091 nM |  |  |  |  | 
CN1CCC[C@H]1c1cccnc1 [NICOTINE] | 103 nM |  |  |  |  | 
